In patent US12195427B2, “MASP-2 inhibitors and methods of use” (priority 2018, dated 2025):
Counter-ions that a name gives are not always drawn.

Target: MASP-2 CCP2-SP (Homo sapiens (Human), UniProt O00187)
Assay: MASP-2 co-crystallization, X-ray crystallography and structure analysis (H-bonds, van der Waals contacts);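 on Ligand-pharmacophore element distance, pharmacophore element C2: distance from averaged pharmacophore element to bound ligand; missing value means element absent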;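 on Ligand-pharmacophore element distance, pharmacophore element C3: distance from averaged pharmacophore element to bound ligand; missing value means element absent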;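 on Ligand-pharmacophore element distance, pharmacophore element C4: distance from averaged pharmacophore element to bound ligand; missing value means element absent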;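 on Ligand-pharmacophore element distance, pharmacophore element C5: distance from averaged pharmacophore element to bound ligand; missing value means element absent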
Set-up: van der Waals contact distance, MASP-2 HIS 483 atom CD2 / van der Waals contact distance, MASP-2 HIS 483 atom NE2 / van der Waals contact distance, SER 654 C to compound atom / van der Waals contact distance, SER 654 O to compound atom / van der Waals contact distance, TRP 655 C to compound atom / van der Waals contact distance, MASP-2 GLY 528 atom CA / van der Waals contact distance TRP 655 atom CZ3 / van der Waals contact distance TRP 655 atom N / van der Waals contact distance TRP 655 atom CE3 / van der Waals contact distance GLY 656 atom C / van der Waals contact distance GLY 656 atom CA / van der Waals contact distance GLY 656 atom O / van der Waals contact distance, MASP-2 TYR 607 atom CD1 / van der Waals contact distance, MASP-2 PRO 606 atom O / d(C3,CA1) / d(CA1,N1)2 / d(H4,O1) / d(H4,O2) / d(O1,O2) / d(CA1,O2) / d(CA6,O1) / d(CA6,O2) / d(CA1,C5) / d(O2,H3) / d(N2,C2) / d(CA5,N2) / d(N2,C4) / d(N2,C6) / d(N2,CA3) / d(N2,O3) / d(O4,H2): unit not given beside the values
Details: for van der Waals contact distance, MASP-2 PHE 529 atom CE1 / van der Waals contact distance, MASP-2 PHE 529 atom CE2: Table A2-3; for van der Waals contact distance, TRP 655 C to compound atom / van der Waals contact distance, TRP 655 CA to compound atom: Table A2-12; for van der Waals contact distance GLY 656 atom CA: MASP-2 GLY 656 CA; for H-bond distance to MASP-2 GLY 656 atom O: GLY 656 O
In short: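 Contacts and H-bonds come from partially refined soaked-crystal structures of recombinant human CCP2-SP made in E. coli, solved by molecular replacement against 1Q3X fragments. Where several ligand poses appeared, only one was analysed; listed nonbonded contacts may include possible H-bond pairings.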

[1] = Table A2-7: SER 628 (CB, O, OG)
[2] = Table A5-1 pharmacophore: distance between elements, S2/S1 region
[3] = Table A7-1, between pharmacophore elements of the bound compound
[4] = Table A8-6, nearest protein atom in cell to the left

Chain of MASP-2 CCP2-SP (O00187 445-686): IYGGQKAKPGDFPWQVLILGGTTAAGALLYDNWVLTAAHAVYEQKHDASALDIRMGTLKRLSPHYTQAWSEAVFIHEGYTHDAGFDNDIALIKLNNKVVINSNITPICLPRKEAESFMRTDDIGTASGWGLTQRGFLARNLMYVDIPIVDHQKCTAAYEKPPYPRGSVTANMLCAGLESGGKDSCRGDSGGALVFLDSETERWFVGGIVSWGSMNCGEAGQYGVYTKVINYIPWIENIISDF
Chain of MASP-2 CCP2-SP (O00187 364-432 partner): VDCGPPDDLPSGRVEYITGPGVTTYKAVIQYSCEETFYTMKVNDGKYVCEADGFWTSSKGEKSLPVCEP

## O=c1oc(-c2ccccc2[N+](=O)[O-])nc2ccccc12 [compound 14]
Table A1 (H-Bonds), ALA 469 N
  H-bond distance to MASP-2 ALA 469 atom N: 3
Table A1 (H-Bonds), HIS 483 NE2
  H-bond distance to MASP-2 HIS 483 atom NE2: 2.89
Table A2-1
  van der Waals contact distance, MASP-2 ALA 468 atom C: 3.69
  van der Waals contact distance, MASP-2 ALA 468 atom CA: 3.52
  van der Waals contact distance, MASP-2 ALA 468 atom CB: 3.52
  van der Waals contact distance, MASP-2 ALA 469 atom CA: 3.89
  van der Waals contact distance, MASP-2 HIS 483 atom CD2: 3.72
  van der Waals contact distance, MASP-2 PHE 529 atom CE1: 3.21
  van der Waals contact distance, TRP 655 C to compound atom: 3.72
  van der Waals contact distance, TRP 655 CA to compound atom: 3.69
[1]
  van der Waals contact distance, MASP-2 amino acid atom to compound atom: 3.65
Table A2-11
  van der Waals contact distance, VAL 653 CB to compound atom: 3.77
Table A2 section before Table A2-8
  van der Waals contact distance, MASP-2 amino acid atom to compound atom: 3.89
Table A4-1, element C2
  Ligand-pharmacophore element distance, pharmacophore element C2: 0
Table A4-1, element C3
  Ligand-pharmacophore element distance, pharmacophore element C3: 0
Table A4-1, element C4
  Ligand-pharmacophore element distance, pharmacophore element C4: 0
Table A4-1, element C5
  Ligand-pharmacophore element distance, pharmacophore element C5: 0
Table A4-1, element C6
  Ligand-pharmacophore element distance, pharmacophore element C6: 0
Table A4-1, element C7
  Ligand-pharmacophore element distance, pharmacophore element C7: 0
Table A4-1, element CA1
  Ligand-pharmacophore element distance, pharmacophore element CA1: 1.47
Table A4-1, element CA2
  Ligand-pharmacophore element distance, pharmacophore element CA2: 0
Table A4-1, element CA3
  Ligand-pharmacophore element distance, pharmacophore element CA3: 0
Table A4-1, element CA4
  Ligand-pharmacophore element distance, pharmacophore element CA4: 0
Table A4-1, element CA5
  Ligand-pharmacophore element distance, pharmacophore element CA5: 0
Table A4-1, element CA6
  Ligand-pharmacophore element distance, pharmacophore element CA6: 1.68
Table A4-2, element H1
  Ligand-pharmacophore element distance, pharmacophore element H1: 0
Table A4-2, element H2
  Ligand-pharmacophore element distance, pharmacophore element H2: 4.66
Table A4-2, element H3
  Ligand-pharmacophore element distance, pharmacophore element H3: 0
Table A4-2, element H4
  Ligand-pharmacophore element distance, pharmacophore element H4: 1.82
Table A4-2, element N1
  Ligand-pharmacophore element distance, pharmacophore element N1: 0
Table A4-2, element N2
  Ligand-pharmacophore element distance, pharmacophore element N2: 0
Table A4-2, element O1
  Ligand-pharmacophore element distance, pharmacophore element O1: 3.89
Table A4-2, element O2
  Ligand-pharmacophore element distance, pharmacophore element O2: 0.46
Table A4-2, element O3
  Ligand-pharmacophore element distance, pharmacophore element O3: 0
Table A4-2, element O4
  Ligand-pharmacophore element distance, pharmacophore element O4: 0
[2]
  d(CA1,O1): 3.49
  d(CA1,O2): 3.51
  d(CA6,O1): 7.02
  d(CA6,O2): 3.51
  d(H4,O1): 3.02
  d(H4,O2): 3.13
  d(O1,O2): 5.28
Table A6-1 pharmacophore angle
  a(CA1, O1, O2): 139.05
  a(O1, CA6, O2): 75.74
  a(O1, O2, H4): 61.95
[3]
  Pharmacophore torsion angle a(CA6, O1, H4, O2): 43.29
  Pharmacophore torsion angle a(O1, H4, O2, CA1): 38.29
Table A8-6, 6th residue column, nearest protein atom in cell to the left
  Pharmacophore protein distance to MET_658 (first MET_658 column): 2.13
Table A8-6, 9th residue column, nearest protein atom in cell to the left
  Pharmacophore protein distance to MET_658 (second MET_658 column): 3.80
[4]
  Pharmacophore protein distance to GLY_528: 3.51
  Pharmacophore protein distance to PHE_529: 2.77
  Pharmacophore protein distance to PRO_608: 4.32
  Pharmacophore protein distance to SER_611: 2.64
Table A8-6, pharmacophore elements C6, CA3, O3, H1, nearest protein atom in cell to the left
  Pharmacophore protein distance to TRP_655: 3.76

## Cc1c(/N=C/c2ccc(OC(=O)c3ccco3)cc2)c(=O)n(-c2ccccc2)n1C [compound 34]
Table A2-13
  van der Waals contact distance GLY 656 atom CA: 3.72

## C[C@H](NC(=O)[C@H]1C[C@H](c2ccccc2)CN1)C(=O)NCc1ccc(N)nc1 [compound 1012]
Table A1 (H-Bonds), ASP 627 OD2
  H-bond distance to MASP-2 ASP 627 atom OD2: 3.18
Table A1 (H-Bonds), GLY 656 N
  H-bond distance to MASP-2 GLY 656 atom N: 3.18
Table A1 (H-Bonds)
  H-bond distance to MASP-2 GLY 656 atom O: 2.77
Table A1 (H-Bonds), SER 654 O
  H-bond distance to MASP-2 SER 654 atom O: 2.93
Table A1 (H-Bonds), SER 657 O
  H-bond distance to MASP-2 SER 657 atom O: 2.89
Table A2-1
  van der Waals contact distance, MASP-2 HIS 483 atom CD2: 3.63
  van der Waals contact distance, MASP-2 PHE 529 atom CE1: 3.75
  van der Waals contact distance, MASP-2 PHE 529 atom CE2: 3.78
  van der Waals contact distance, TRP 655 C to compound atom: 3.8
  van der Waals contact distance, TRP 655 CA to compound atom: 3.36
Table A2-4
  van der Waals contact distance, MASP-2 PRO 606 atom CG: 3.85
Table A2-5: TYR 607 (CE1, CE2, OH), PRO 608 (CD, CG), SER 611 (CA)
  van der Waals contact distance, MASP-2 amino acid atom to compound atom: 3.88
Table A2-6: SER 611 (CB, OG), ASP 627 (CG, OD1, OD2), SER 628 (C, CA)
  van der Waals contact distance, MASP-2 amino acid atom to compound atom: 3.6
[1]
  van der Waals contact distance, MASP-2 amino acid atom to compound atom: 3.53
Table A2-9, ARG 630, AA atoms CG, CZ
  van der Waals contact distance, MASP-2 amino acid atom to compound atom: 3.83
Table A2-13
  van der Waals contact distance GLY 656 atom CA: 3.73

## C[C@H](NC(=O)[C@H](N)CCc1ccccc1)C(=O)NCc1cc(Cl)ccc1O [compound 1031, (R)-2-Amino-N—((S)-1-((5-chloro-2-hydroxybenzyl)amino)-1-oxopropan-2-yl)-4-phenylbutanamide Hydrochloride]
Table A1 (H-Bonds), ARG 630 NH1
  H-bond distance to MASP-2 ARG 630 atom NH1 (second bond): 2.83
Table A1 (H-Bonds)
  H-bond distance to MASP-2 GLY 656 atom O: 2.67
Table A2-1
  van der Waals contact distance, MASP-2 HIS 483 atom CD2: 3.57
  van der Waals contact distance, MASP-2 HIS 483 atom CE1: 3.62
  van der Waals contact distance, MASP-2 HIS 483 atom NE2: 3.17
  van der Waals contact distance, MASP-2 PHE 529 atom CE2: 3.75
Table A2-4
  van der Waals contact distance, MASP-2 TYR 607 atom CD1: 3.85
Table A2-9 second part, ARG 630, AA atoms N, NE, NH1, Hydrochloride
  van der Waals contact distance, MASP-2 amino acid atom to compound atom: 3.34
Table A2-11
  van der Waals contact distance, VAL 653 CG1 to compound atom: 3.58
Table A2-11, Hydrochloride
  van der Waals contact distance, SER 654 C to compound atom: 3.56
Hydrochloride
  van der Waals contact distance, TRP 655 C to compound atom: 3.26
  van der Waals contact distance, TRP 655 CA to compound atom: 3.64
Table A2-13, MASP-2 GLY 656 C
  van der Waals contact distance GLY 656 atom C: 3.61
Table A2-13, MASP-2 TRP 655 CE3, compound atom in line below
  van der Waals contact distance TRP 655 atom CE3: 3.49
Table A2-13, MASP-2 TRP 655 N
  van der Waals contact distance TRP 655 atom N: 3.28
